Tests used:
Settings in all cases: 72 h
MV4-11 = tested on: MV4-11
Procedure, shortened: (§1)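 The IC50 was derived from log-logistic dose–response fitting. Each of fifteen myeloid leukaemia cell lines, seeded in RPMI 1640 within its linear growth range, was exposed in 384-well plates to five tenfold doses (1 to 10,000 nM) in duplicate for 72 h at 37 °C and 5% CO2. Luminescent ATP viability readings were normalised to vehicle and to a positive control at 10 µM before four-parameter curve fitting.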

LAMA-84 [1] = tested on: LAMA-84
Procedure, shortened: as §1

KU-812 [2] = tested on: KU-812
Procedure, shortened: as §1

KCL-22 [3] = tested on: KCL-22
Procedure, shortened: as §1

HEL [4] = tested on: HEL
Procedure, shortened: as §1

SHI-1 [5] = tested on: SHI-1
Procedure, shortened: as §1

Mono-Mac-6 [6] = tested on: Mono-Mac-6
Procedure, shortened: as §1

MOLM-13 [7] = tested on: MOLM-13
Procedure, shortened: as §1

ML-2 [8] = tested on: ML-2
Procedure, shortened: as §1

K-562 [9] = tested on: K-562
Procedure, shortened: as §1

THP-1 [10] = tested on: THP-1
Procedure, shortened: as §1

KG-1 [11] = tested on: KG-1
Procedure, shortened: as §1

NOMO-1 [12] = tested on: NOMO-1
Procedure, shortened: as §1

HL-60 [13] = tested on: HL-60
Procedure, shortened: as §1

BV-173 [14] = tested on: BV-173
Procedure, shortened: as §1

HL-60 [15] = assay: area under dose-response curve (viability, 1 nM-10 uM) (fraction (0-1)); higher = more sensitive
Procedure, shortened: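 For each screen, HL-60 cells in RPMI 1640 with 10% FBS carried either DMSO or 100 nM of one of three metabolic inhibitors while the full library was applied at five tenfold concentrations, 1–10,000 nM, in duplicate. Plates were 384-well and were kept 72 h at 37 °C, 5% CO2. Viability, measured by CellTiter-Glo, was normalised to wells with DMSO and with 10 μM proteasome inhibitor. Where area under the curve appears, it was fitted by four-parameter log-logistic models in drc and PharmacoGx.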

LAMA-84 [16] = assay: cell viability (% survival relative to DMSO control, bortezomib = 0%); higher = less cytotoxic
Procedure, shortened: (§2)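 Reported values are percent survival from duplicate wells, averaged. Fifteen myeloid leukaemia cell lines were treated in 384-well plates with compounds at 1, 10, 100, 1000 or 10000 nM for 72 h at 37 °C in 5% CO2. Signals from CellTiter-Glo luminescence were scaled with vehicle as 100% and a 10 µM positive control as 0%.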

KU-812 [17] = assay: as above
Procedure, shortened: as §2

KCL-22 [18] = assay: as above
Procedure, shortened: as §2

HEL [19] = assay: as above
Procedure, shortened: as §2

SHI-1 [20] = assay: as above
Procedure, shortened: as §2

Mono-Mac-6 [21] = assay: as above
Procedure, shortened: as §2

MOLM-13 [22] = assay: as above
Procedure, shortened: as §2

ML-2 [23] = assay: as above
Procedure, shortened: as §2

K-562 [24] = assay: as above
Procedure, shortened: as §2

THP-1 [25] = assay: as above
Procedure, shortened: as §2

KG-1 [26] = assay: as above
Procedure, shortened: as §2

NOMO-1 [27] = assay: as above
Procedure, shortened: as §2

HL-60 [28] = assay: as above
Procedure, shortened: as §2

BV-173 [29] = assay: as above
Procedure, shortened: as §2

CC1(C)[C@@H](O[C@H]2O[C@H](C(=O)O)[C@@H](O)[C@H](O)[C@H]2O[C@@H]2O[C@H](C(=O)O)[C@@H](O)[C@H](O)[C@H]2O)CC[C@]2(C)[C@H]3C(=O)C=C4[C@@H]5C[C@@](C)(C(=O)O)CC[C@]5(C)CC[C@@]4(C)[C@]3(C)CC[C@@H]12 [Glycyrrhizin]
Settings | IC50 (cell viability) [µM]
BV-173 [14] | > 10
HEL [4] | > 10
HL-60 [13] | > 10
K-562 [9] | > 10
KCL-22 [3] | > 10
KG-1 [11] | > 10
KU-812 [2] | > 10
LAMA-84 [1] | > 10
ML-2 [8] | > 10
MOLM-13 [7] | > 10
MV4-11 | > 10
Mono-Mac-6 [6] | > 10
NOMO-1 [12] | > 10
SHI-1 [5] | > 10
THP-1 [10] | > 10

Settings | area under dose-response curve, co-treatment: AZD3965 100 nM | area under dose-response curve, co-treatment: DMSO vehicle | area under dose-response curve, co-treatment: GSK2194069 100 nM | area under dose-response curve, co-treatment: pictilisib 100 nM | cell viability, 1 nM [%] | cell viability, 10 nM [%] | cell viability, 100 nM [%] | cell viability, 1000 nM [%] | cell viability, 10000 nM [%]
BV-173 [29] | – | – | – | – | 88.9 | 109 | 117 | 95.4 | 83.4
HEL [19] | – | – | – | – | 99.8 | 108 | 107 | 109 | 84.8
HL-60 [15] | < 0.0301 | < 0.0301 | < 0.0301 | < 0.0301 | – | – | – | – | –
HL-60 [28] | – | – | – | – | 74.5 | 101 | 113 | 103 | 98.7
K-562 [24] | – | – | – | – | 88.7 | 87.5 | 102 | 91.6 | 83.4
KCL-22 [18] | – | – | – | – | 89.9 | 95.3 | 105 | 99.3 | 97.2
KG-1 [26] | – | – | – | – | 90 | 108 | 114 | 101 | 106
KU-812 [17] | – | – | – | – | 87.4 | 92 | 107 | 99.6 | 84.3
LAMA-84 [16] | – | – | – | – | 94.9 | 98.8 | 98.7 | 92.7 | 102
ML-2 [23] | – | – | – | – | 101 | 110 | 104 | 114 | 99.5
MOLM-13 [22] | – | – | – | – | 70.1 | 91.4 | 133 | 79.3 | 92.3
Mono-Mac-6 [21] | – | – | – | – | 94.1 | 103 | 104 | 94.8 | 89
NOMO-1 [27] | – | – | – | – | 97.5 | 107 | 103 | 100 | 93.4
SHI-1 [20] | – | – | – | – | 95.5 | 100 | 114 | 105 | 97.2
THP-1 [25] | – | – | – | – | 92.1 | 103 | 95.8 | 98.4 | 96.2

Nc1ccccc1C(=O)C[C@H](N)C(=O)O [L-Kynurenine]
Settings | IC50 (cell viability) [µM]
BV-173 [14] | > 10
HEL [4] | > 10
HL-60 [13] | > 10
K-562 [9] | > 10
KCL-22 [3] | > 10
KG-1 [11] | > 10
KU-812 [2] | > 10
LAMA-84 [1] | > 10
ML-2 [8] | > 10
MOLM-13 [7] | > 10
MV4-11 | > 10
Mono-Mac-6 [6] | > 10
NOMO-1 [12] | > 10
SHI-1 [5] | > 10
THP-1 [10] | > 10

Settings | area under dose-response curve, co-treatment: AZD3965 100 nM | area under dose-response curve, co-treatment: DMSO vehicle | area under dose-response curve, co-treatment: GSK2194069 100 nM | area under dose-response curve, co-treatment: pictilisib 100 nM | cell viability, 1 nM [%] | cell viability, 10 nM [%] | cell viability, 100 nM [%] | cell viability, 1000 nM [%] | cell viability, 10000 nM [%]
BV-173 [29] | – | – | – | – | 108 | 90.1 | 101 | 107 | 102
HEL [19] | – | – | – | – | 117 | 80.1 | 102 | 104 | 92.7
HL-60 [15] | < 0.0301 | < 0.0301 | < 0.0301 | < 0.0301 | – | – | – | – | –
HL-60 [28] | – | – | – | – | 122 | 100 | 111 | 105 | 109
K-562 [24] | – | – | – | – | 104 | 125 | 93.3 | 101 | 110
KCL-22 [18] | – | – | – | – | 104 | – | 96.6 | 103 | 97.3
KG-1 [26] | – | – | – | – | 103 | 89.4 | 92.8 | 102 | 96.7
KU-812 [17] | – | – | – | – | 98.8 | 90.5 | 99.5 | 106 | 99.2
LAMA-84 [16] | – | – | – | – | 105 | 105 | 100 | 107 | 107
ML-2 [23] | – | – | – | – | 107 | 103 | 103 | 100 | 98.7
MOLM-13 [22] | – | – | – | – | 86.5 | 93.2 | 100 | 97.7 | 66.1
Mono-Mac-6 [21] | – | – | – | – | 101 | 91.7 | 102 | 93.8 | 95.9
NOMO-1 [27] | – | – | – | – | 102 | 96.3 | 99 | 117 | 101
SHI-1 [20] | – | – | – | – | 120 | 102 | 90.6 | 104 | 98.4
THP-1 [25] | – | – | – | – | 97 | 93.1 | 101 | 102 | 102

N/C(=N\CCCC(N)C(=O)O)N[N+](=O)[O-] [L-NNA]
Settings | IC50 (cell viability) [µM]
BV-173 [14] | > 10
HEL [4] | > 10
HL-60 [13] | > 10
K-562 [9] | > 10
KCL-22 [3] | > 10
KG-1 [11] | > 10
KU-812 [2] | > 10
LAMA-84 [1] | > 10
ML-2 [8] | > 10
MOLM-13 [7] | > 10
MV4-11 | > 10
Mono-Mac-6 [6] | > 10
NOMO-1 [12] | > 10
SHI-1 [5] | > 10
THP-1 [10] | > 10

Settings | area under dose-response curve, co-treatment: AZD3965 100 nM | area under dose-response curve, co-treatment: DMSO vehicle | area under dose-response curve, co-treatment: GSK2194069 100 nM | area under dose-response curve, co-treatment: pictilisib 100 nM | cell viability, 1 nM [%] | cell viability, 10 nM [%] | cell viability, 100 nM [%] | cell viability, 1000 nM [%] | cell viability, 10000 nM [%]
BV-173 [29] | – | – | – | – | 96.5 | 103 | 105 | 88.9 | 96.1
HEL [19] | – | – | – | – | 103 | 98.5 | 105 | 91.6 | 95.6
HL-60 [15] | < 0.0301 | < 0.0301 | < 0.0301 | < 0.0301 | – | – | – | – | –
HL-60 [28] | – | – | – | – | 96.1 | 75.4 | 114 | 92.4 | 126
K-562 [24] | – | – | – | – | 104 | 94.9 | 117 | 92.1 | 102
KCL-22 [18] | – | – | – | – | 92.7 | 107 | 106 | 94.8 | 93.5
KG-1 [26] | – | – | – | – | 89.2 | 93.7 | 96.3 | 92.6 | 89.8
KU-812 [17] | – | – | – | – | 88.3 | 92.6 | 102 | 87.4 | 91.8
LAMA-84 [16] | – | – | – | – | 101 | 105 | 100 | 90.9 | 101
ML-2 [23] | – | – | – | – | 90.7 | 102 | 102 | 93.7 | 94.5
MOLM-13 [22] | – | – | – | – | 102 | 73.6 | 92.4 | 98 | 88.4
Mono-Mac-6 [21] | – | – | – | – | 89.4 | 95.8 | 92.1 | 84.2 | 91
NOMO-1 [27] | – | – | – | – | 96.4 | 99.8 | 99.4 | 91.5 | 92.2
SHI-1 [20] | – | – | – | – | 98.8 | 95.6 | 109 | 96.1 | 96.7
THP-1 [25] | – | – | – | – | 98.1 | 105 | 96.9 | 93 | 91.1
